Data on 13 compounds can be found in ChEMBL document CHEMBL1128033, “Design and synthesis of new leads for PKC bisubstrate inhibitors” (Bioorg Med Chem Lett, 1994).

Where only a bound is given, the exact number is not on record here.

In one test the target is Protein kinase C (PKC). Kind of test: Inhibition of protein kinase C (PKC) using histone III S protein. In kind it is protein assay.
For test [1], the target named is cAMP-dependent protein kinase (PKA) (Homo sapiens, UniProt P22694+P17612+P22612). Kind of test: Inhibition of c-AMP dependent kinase (PKA) using histone II A protein. In kind it is protein assay.

The term IC50 denotes the concentration at which inhibition is half-maximal.

In turn, `NC(Cc1ccccc1)C(=O)NCCCCCNC1=C(c2cc3ccccc3[nH]2)C(=O)NC1=O` (stereo not drawn) yielded an IC50 against Protein kinase C (PKC) of 120 µM.

Consider `NCCCNCCCNC1=C(c2cc3ccccc3[nH]2)C(=O)NC1=O`, for which the concentration for half-maximal inhibition (IC50) came out at 390 µM in test [1] and 100 µM against Protein kinase C (PKC).

For `NCCCCCNC1=C(c2cc3ccccc3[nH]2)C(=O)NC1=O`, the IC50 in test [1] was 300 µM; on Protein kinase C (PKC), 8 µM.

As to `NCCNC1=C(c2cc3ccccc3[nH]2)C(=O)NC1=O`, the values for the IC50 (in test [1]; on Protein kinase C (PKC)) were 100 µM and 90 µM, respectively.

Regarding `NCCNCCCCCNC1=C(c2cc3ccccc3[nH]2)C(=O)NC1=O`, the IC50 in test [1] was above 500 µM; against Protein kinase C (PKC), 110 µM.

Regarding `NCCCCCCCNC1=C(c2cc3ccccc3[nH]2)C(=O)NC1=O`, the IC50 worked out at 150 µM in test [1] and 5 µM against Protein kinase C (PKC).

With `NC(N)=NCCCC(N)C(=O)NCCNCCCCCNC1=C(c2cc3ccccc3[nH]2)C(=O)NC1=O` (stereo not drawn), the results for the IC50 (in test [1]; at Protein kinase C (PKC)) were 210 µM and 8 µM, respectively.

In turn, `C[C@H]1CNCCN1S(=O)(=O)c1cccc2cnccc12` had a 50% inhibitory concentration (IC50) against Protein kinase C (PKC) of 6 µM. That is a single-digit micromolar value.

With `NC(Cc1ccccc1)C(=O)NCCNCCCCCNC1=C(c2cc3ccccc3[nH]2)C(=O)NC1=O` (stereo not drawn), the IC50 in test [1] came out at 120 µM; on Protein kinase C (PKC) it was 95 µM.

As to `NCCCCCCNC1=C(c2cc3ccccc3[nH]2)C(=O)NC1=O`, the IC50 in test [1] stood at 50 µM; against Protein kinase C (PKC), 40 µM.

The compound `NC(N)=NCCCC(N)C(=O)NCCCCCNC1=C(c2cc3ccccc3[nH]2)C(=O)NC1=O` (stereo not drawn) yielded an IC50 against Protein kinase C (PKC) of 60 µM.

As for `NC(CCC(=O)O)C(=O)NCCCCCNC1=C(c2cc3ccccc3[nH]2)C(=O)NC1=O` (stereo not drawn), the figures for the IC50 (in test [1]; against Protein kinase C (PKC)) were 390 µM and 105 µM, respectively.

`NCCNCCNC1=C(c2cc3ccccc3[nH]2)C(=O)NC1=O`: the results for the IC50 (in test [1]; against Protein kinase C (PKC)) were 310 µM and 120 µM, respectively.
